Patent US20110319274A1, “Identification of Compounds Modifying a Cellular Response” (Carlsberg A/S, priority 2004, published 2011)

System: GFP expressing U2OS cells and Hek293 cells
Test: Adhesion peptide screening for low fluorescence/high adherence properties (FABS, microscope)
Assay type: cell-based, Human
Conditions: re-synthesized peptides on beads
Experimental: An adhesion D-amino peptide library was synthesized (500,000 members) as described above in Example 1 and screened for low fluorescence/high adherence properties. This was done in 4 steps:
1) Selection of low fluorescent beads by Fluorescence Activated Bead Sorting (FABS).
The 500,000 member adhesion peptide library was FABSorted and 150,000 low fluorescent beads were isolated.
2) Selection of beads with good cell adhesion properties.
The 150,000 low fluorescent beads were incubated with GFP expressing U2OS cells followed by FABS sorting for high fluorescence (high cell adhesion). 536 beads were isolated.
3) Identification and isolation of beads with high Hek293 cell adherence properties.
The 536 beads were cleared for U2OS cells and incubated with GFP expressing Hek293 cells. 47 beads with high cell adhesion properties were isolated using a fluorescence microscope.
4) Sequence elucidation and re-synthesis of selected peptides.
22 peptides were sequenced and six of them were re-synthesized. Based on Structure-Activity of the six peptides, four additional ones (AP-7 […] AP-10) were synthesized.

arg-gln-arg-ile-arg (RQRIR; Cell adhesion peptide) [SEQ IS 35]
overall performance (low fluorescence/high adherence properties): best overall performance
